Data taken from patent publication US6534542B2, “(2-hydroxy)ethyl-thioureas useful as modulators of α2B adrenergic receptors” (Allergen Sales, Inc., priority 2001, dated 2003).

Key:
alpha2B receptor = target: T1, alpha2B receptor (Homo sapiens, UniProt P18089); experiment: Receptor Selection and Amplification Technology (RSAT) assay, alpha2B; assay type: cell-based; conditions: NIH-3T3 cells; for EC50: NA = not active at concentrations less than 10 micromolar, read-out: RSAT EC50 (nM) Alpha 2B; for fraction of activity of the standard (brimonidine) attained, Alpha 2B (number in parenthesis): ratio of maximal effect to that of standard full agonist brimonidine
T1 construct: expressed in transfected cells; host or cells: NIH-3T3
T1 sequence (P18089 1-450): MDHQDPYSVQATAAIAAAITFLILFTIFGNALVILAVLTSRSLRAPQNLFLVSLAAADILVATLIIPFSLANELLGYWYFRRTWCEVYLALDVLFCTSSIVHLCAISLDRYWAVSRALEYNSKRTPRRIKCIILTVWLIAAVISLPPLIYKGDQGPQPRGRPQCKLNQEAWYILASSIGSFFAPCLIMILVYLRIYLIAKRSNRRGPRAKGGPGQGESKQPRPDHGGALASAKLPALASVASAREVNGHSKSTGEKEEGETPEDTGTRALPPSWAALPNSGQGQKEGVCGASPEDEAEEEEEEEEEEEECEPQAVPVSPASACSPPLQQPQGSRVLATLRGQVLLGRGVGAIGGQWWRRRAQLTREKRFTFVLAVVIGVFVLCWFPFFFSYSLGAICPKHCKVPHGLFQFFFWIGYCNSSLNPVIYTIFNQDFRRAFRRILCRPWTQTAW
Text: (§1) The compounds of the invention are agonists of α2 adrenergic receptors, particularly they tend to be specific or selective agonists of α2B and/or to a lesser extent α2C adrenergic receptors, in preference over α2A adrenergic receptors. […] Al., 1995, Pharmacol. Toxicol. 76, pp. 308-311 (incorporated herein by reference) and is also described below. Another reference pertinent to this assay is Conklin et al. (1993) Nature 363:274-6, also incorporated herein by reference.
(§2) The RSAT assay measures a receptor-mediated loss of contact inhibition that results in selective proliferation of receptor-containing cells in a mixed population of confluent cells. The increase in cell number is assessed with an appropriate transfected marker gene such as β-galactosidase, the activity of which can be easily measured in a 96-well format. Receptors that activate the G protein, Gq, elicit this response. Alpha2 receptors, which normally couple to Gi, activate the RSAT response when coexpressed with a hybrid Gq protein that has a Gi receptor recognition domain, called Gq/i5^2.
(§3) NIH-3T3 cells are plated at a density of 2×10^6 cells in 15 cm dishes and maintained in Dulbecco's modified Eagle's medium supplemented with 10% calf serum. One day later, cells are cotransfected by calcium phosphate precipitation with mammalian expression plasmids encoding p-SV-β-galactosidase (5-10 μg), receptor (1-2 μg) and G protein (1-2 μg). 40 μg salmon sperm DNA may also be included in the transfection mixture. Fresh media is added on the following day and 1-2 days later, cells are harvested and frozen in 50 assay aliquots. Cells are thawed and 100 μl added to 100 μl aliquots of various concentrations of drugs in triplicate in 96-well dishes. Incubations continue 72-96 hr at 37°. After washing with phosphate-buffered saline, β-galactosidase enzyme activity is determined by adding 200 μl of the chromogenic substrate (consisting of 3.5 mM o-nitrophenyl-β-D-galactopyranoside and 0.5% nonidet P-40 in phosphate buffered saline), incubating overnight at 30 and measuring optical density at 420 nm. The absorbance is a measure of enzyme activity, which depends on cell number and reflects a receptor-mediated cell proliferation. The EC50 and maximal effect of each drug at each alpha2 receptor is determined. The efficacy or intrinsic activity is calculated as a ratio of the maximal effect of the drug to the maximal effect of a standard full agonist for each receptor subtype. Brimonidine, also called […], the chemical structure of which is shown below, is used as the standard agonist for the alpha2A, alpha2B and alpha2C receptors. [drawing 6]
(§4) The results of the RSAT assay with several exemplary compounds of the invention are disclosed in Table 3. […] NA stands for “not active” at concentrations less than 10 micromolar. As is known EC50 is the concentration at which half of a given compound's maximal activity is observed. It can be seen from the table that the compounds of the invention are specific or selective agonists of α2B and/or α2C adrenergic receptors, with no agonist like activity or only with insignificant agonist-like activity on α2A receptors.

alpha2C receptor = target: T2, alpha2C receptor (Homo sapiens, UniProt P18825); experiment: Receptor Selection and Amplification Technology (RSAT) assay, alpha2C; assay type: cell-based; conditions: NIH-3T3 cells; for EC50: NA = not active at concentrations less than 10 micromolar, read-out: RSAT EC50 (nM) Alpha 2C; for fraction of activity of the standard (brimonidine) attained, Alpha 2C (number in parenthesis): ratio of maximal effect to that of standard full agonist brimonidine
T2 construct: expressed in transfected cells; host or cells: NIH-3T3
T2 sequence (P18825 1-462): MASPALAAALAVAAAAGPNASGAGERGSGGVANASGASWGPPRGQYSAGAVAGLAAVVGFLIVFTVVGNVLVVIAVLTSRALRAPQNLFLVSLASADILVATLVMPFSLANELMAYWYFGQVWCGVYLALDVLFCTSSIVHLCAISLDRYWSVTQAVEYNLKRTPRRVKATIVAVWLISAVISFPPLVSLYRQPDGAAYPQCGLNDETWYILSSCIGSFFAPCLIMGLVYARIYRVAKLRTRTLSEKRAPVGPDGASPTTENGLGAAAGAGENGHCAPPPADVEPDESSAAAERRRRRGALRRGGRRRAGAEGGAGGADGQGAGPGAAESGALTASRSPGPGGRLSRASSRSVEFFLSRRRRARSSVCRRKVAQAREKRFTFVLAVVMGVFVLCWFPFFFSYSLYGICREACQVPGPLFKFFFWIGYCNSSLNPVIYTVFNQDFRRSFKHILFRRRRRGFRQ
Text: as §1, §2, §3, §4

[1] = test system: rats with ligated L5 and L6 spinal nerves; experiment: Alleviation of chronic pain: tactile allodynia after L5/L6 spinal nerve ligation (von Frey hairs); assay type: in vivo, rat; conditions: 30 minutes after administration, ±SEM
Text: A model for chronic pain (in particular peripheral neuropathy such as causalgia) involves the surgical ligation of the L5 (and optionally the L6) spinal nerves on one side in experimental animals. Rats recovering from the surgery gain weight and display a level of general activity similar to that of normal rats. However, these rats develop abnormalities of the foot, wherein the hindpaw is moderately everted and the toes are held together. More importantly, the hindpaw on the side affected by the surgery appears to become sensitive to pain from low-threshold mechanical stimuli, such as that producing a faint sensation of touch in a human, within about 1 week following surgery. This sensitivity to normally non-painful touch is called “tactile allodynia” and lasts for at least two months. The response includes lifting the affected hindpaw to escape from the stimulus, licking the paw and holding it in the air for many seconds. None of these responses is normally seen in the control group.
Rats are anesthetized before surgery. The surgical site is shaved and prepared either with betadine or Novacaine. Incision is made from the thoracic vertebra XIII down toward the sacrum. Muscle tissue is separated from the spinal vertebra (left side) at the L4-S2 levels. The L6 vertebra is located and the transyerse process is carefully removed with a small rongeur to expose the L4-L6 spinal nerves. The L5 and L6 spinal nerves are isolated and tightly ligated with 6-0 silk thread. The same procedure is done on the right side as a control, except no ligation of the spinal nerves is performed. A complete hemostasis is confirmed, then the wounds are sutured. A small amount of antibiotic ointment is applied to the incised area, and the rat is transferred to the recovery plastic cage under a regulated heat-temperature lamp. On the day of the experiment, at least seven days after the surgery, typically six rats per test group are administered the test drugs by intraperitoneal (i.p.) injection or oral gavage. For i.p. injection, the compounds are formulated in approximately 10 to 50% DMSO and given in a volume of 1 ml/kg body weight.
Tactile allodynia is measured prior to and 30 minutes after drug administration using von Frey hairs that are a series of fine hairs with incremental differences in stiffness. Rats are placed in a plastic cage with a wire mesh bottom and allowed to acclimate for approximately 30 minutes. The von Frey hairs are applied perpendicularly through the mesh to the mid-plantar region of the rats' hindpaw with sufficient force to cause slight buckling and held for 6-8 seconds. The applied force has been calculated to range from 0.41 to 15.1 grams. If the paw is sharply withdrawn, it is considered a positive response. A normal animal will not respond to stimuli in this range, but a surgically ligated paw will be withdrawn in response to a 1-2 gram hair. The 50% paw withdrawal threshold is determined using the method of Dixon, […]. The post-drug threshold is compared to the pre-drug threshold and the percent reversal of tactile sensitivity is calculated based on a normal threshold of 15.1 grams. The results are expressed in per cent (%) MPE, where the MPE value reflects the percentage reversal of pain threshold to that of a normal animal (100%). Table 4 below indicates results of this test with Compounds 8, 34 and 40 of the invention, administered i.p., in intrathecal and oral doses.

EC50 (alpha2B receptor)	fraction of activity of the standard (brimonidine) attained, Alpha 2B (number in parenthesis) (alpha2B receptor)	EC50 (alpha2C receptor)	fraction of activity of the standard (brimonidine) attained, Alpha 2C (number in parenthesis) (alpha2C receptor)	Structure (SMILES)	further results
135 nM	(0.75)	1730 nM	(0.3)	CC1=C(CNC(=S)NCCO)CCC1 [Compound 27, 1-(2-Methyl-cyclopent-1-enylmethyl)-3-(2-hydroxy-ethyl)-thiourea]	
12 nM	(0.71)	251 nM	(0.98)	CC1=CCCCC1NC(=S)NCCO (stereo not shown) [Compound 33, 1-(2-Hydroxy-ethyl)-3-(2-methyl-cyclohex-2-enyl)-thiourea]	
6 nM	(0.8)	253 nM	(0.37)	CC1=C(C)C(NC(=S)NCCO)CCC1 (stereo not shown) [Compound 31, 1-(2,3-Dimethyl-cyclohex-2-enyl)-3-(2-hydroxy-ethyl)-thiourea]	
> 2000 nM	(0.51)	738 nM	(0.69)	CCCCC1=C(CNC(=S)NCCO)CCC1 [Compound 25, 1-(2-Butyl-cyclopent-1-enylmethyl)-3-(2-hydroxy-ethyl)-thiourea]	
10 nM	(0.77)			OCCNC(=S)NCC1=C(Br)CCCC1 [Compound 18, 1-(2-Bromo-cyclohex-1-enylmethyl)-3-(2-hydroxy-ethyl)-thiourea]	

The next lines start with the compound.

Structure (SMILES)	EC50 (alpha2B receptor)	fraction of activity of the standard (brimonidine) attained, Alpha 2B (number in parenthesis) (alpha2B receptor)	EC50 (alpha2C receptor)	fraction of activity of the standard (brimonidine) attained, Alpha 2C (number in parenthesis) (alpha2C receptor)	further results
OCCNC(=S)NCC1CC=CCC1 (stereo not shown) [Compound 8, 1-Cyclohex-3-enylmethyl-3-(2-hydroxy-ethyl)-thiourea]	17 nM	(0.79)			% MPE ([1]; IP dose 10 μg/kg): 1.5 ± 0.9 % MPE; % MPE ([1]; IP dose 30 μg/kg): 47 ± 8.6 % MPE; % MPE ([1]; IP dose 100 μg/kg): 63 ± 9.1 % MPE; % MPE ([1]; IP dose 300 μg/kg): 56 ± 6.5 % MPE; % MPE ([1]; IP dose 1000 μg/kg): 52 ± 8.4 % MPE; % MPE ([1]; Intrathecal dose 30 μg): 0.02 ± 0.6 % MPE; % MPE ([1]; Intrathecal dose 100 μg): 1.3 ± 0.6 % MPE; % MPE ([1]; Intrathecal dose 300 μg): 20 ± 5.1 % MPE
OCCNC(=S)NC1C=CCCC1 (stereo not shown) [Compound 35, 1-(Cyclohex-2-enyl)-3-(2-hydroxy-ethyl)-thiourea]	73 nM	(0.58)	630 nM	(0.4)	
C[C@@H]1CCC[C@@H]1NC(=S)NCCO (relative stereo) [Compound 12, 1-(2-Hydroxy-ethyl)-3-(cis-2-methyl-cyclopentyl)-thiourea]	1530 nM	(0.47)			
CC1=CCCC1NC(=S)NCCO (stereo not shown) [Compound 14, 1-(2-Hydroxy-ethyl)-3-(2-methyl-cyclopent-2-enyl)-thiourea]	97 nM	(0.95)	3000 nM	(0.3)	
CC1=CC(NC(=S)NCCO)CC1 (stereo not shown) [Compound 13, 1-(2-Hydroxy-ethyl)-3-(3-methyl-cyclopent-2-enyl)-thiourea]	111 nM	(0.66)			
